Reference: US20240350643A1, “PROTEIN DEGRADATION AGENT” (SUZHOU KINTOR PHARMACEUTICALS, INC., priority 2021, published 2024)

Experiments:
[1] = tested on: HL60 cells; experiment: Anti-proliferation ability of compounds on HL60 cells (CTG); format: cell-based, human; conditions: Homo sapiens, HL-60, 72 h, 3 days, CellTiter-Glo, read-out: HL60 cells Proliferation inhibitory activity
Experimental: II. Activity test 2: Anti-proliferation ability of compounds on HL60 cells: 1 Cell plating
HL60 cells in the logarithmic growth phase were counted and plated evenly in a 96-well transparent bottom white plate at 20000 cells per well and 100 μL per well.
A certain amount of the compounds was weighed and diluted with DMSO to a 10 mM stock solution. The culture mediums corresponding to the cells were taken, and the drugs were diluted to the concentration required by the test, shaken gently and mixed evenly. 50 μl of the gradient dilution of the diluted compound was added to each well of the plated cells, and 50 μL of 0.1% DMSO was added to the control group. The plate was shaken gently, mixed evenly and incubated in a cell culture incubator for 3 days.
• 3.1 The CellTiter-GLo™ (CTG) reagent was taken in advance from the −20° C. refrigerator and equilibrated to room temperature in the dark (white bottle+brown bottle, 1:1 mixing evenly into the brown bottle, for later use). • 3.2 The 96-well plate was taken out and inspected under a microscope for growth situation. • 3.3 The bottom of the 96-well plate was tagged with white paper, and then the plate was wrapped with tin foil paper, shaken at 37° C. at 300 r for 10 min and mixed evenly. • 3.4 50 ul of CTG detection reagent was added to each well, Luminescence signal was detected using a microplate reader, and the inhibition rate was calculated. IC50 values of the compounds were calculated by XLfit software to evaluate the proliferation inhibitory activity on HL60 cells.

[2] = target: T1, c-Myc protein (Homo sapiens, UniProt P01106); experiment: Ability of compounds to degrade c-Myc protein in HL60 cells (ELISA); format: cell-based; conditions: HL-60, 1 μM compound, 24 h, read-out: HL60 cells Protein degradation rate (1 μM)
T1 construct: endogenous in cells; host or cells: HL60 cells
T1 sequence (P01106 whole entry): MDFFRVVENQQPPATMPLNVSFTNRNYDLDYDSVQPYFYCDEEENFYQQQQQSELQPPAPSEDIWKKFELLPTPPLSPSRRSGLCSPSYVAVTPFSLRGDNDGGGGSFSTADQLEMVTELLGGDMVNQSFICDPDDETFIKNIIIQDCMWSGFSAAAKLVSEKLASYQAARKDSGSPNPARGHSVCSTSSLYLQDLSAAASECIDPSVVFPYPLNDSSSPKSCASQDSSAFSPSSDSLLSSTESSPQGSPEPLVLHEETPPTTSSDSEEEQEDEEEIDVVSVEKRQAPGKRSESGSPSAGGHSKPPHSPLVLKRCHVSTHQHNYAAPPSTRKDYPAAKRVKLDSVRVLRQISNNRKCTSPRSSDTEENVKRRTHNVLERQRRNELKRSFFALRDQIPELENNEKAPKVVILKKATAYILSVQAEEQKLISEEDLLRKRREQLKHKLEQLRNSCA
Experimental: I Activity test 1: Ability of compounds to degrade c-Myc protein in HL60 cells:
HL60 cells in the exponential growth phase were centrifuged, diluted with fresh culture mediums to 6×10^4 cells/100 μL and plated into a 96-well plate at 100 μL per well.
Preparation of test compounds: the compounds were weighed and diluted with DMSO to a 10 mM stock solution for later use. According to test requirements, drugs were diluted with cell culture mediums, with ten-fold dilutions starting from 10 μM, to achieve 3 concentration gradients: 10 μM, 1 μM and 100 NM; and finally, 1 μL of the drugs (DMSO content: 0.01%) were added to each well. For the blank control group, DMSO was also diluted with cell culture mediums, and finally, 1 μL of the control reagent (DMSO content: 0.01%) was added to each well.
3. Effect of drugs on c-Myc in cells as determined by ELISA
After 24 h of drug action, the culture mediums were removed, and the cells were washed once with ice-cold 1× PBS. PBS was removed, and 100 μL of ice-cold 1× Cell Lysis Buffer plus 1 mM phenylmethylsulfonyl fluoride (PMSF) was added to each well. The plate was incubated on ice for 20 min and centrifuged at 4000 RPM at 4° C. for 10 min for later use.
4. Reagent and antibody preparation in ELISA kit 1× wash buffer • 1). 16 mL of ELISA wash buffer concentrate (25×) was diluted with 384 mL of deionized water or distilled water, labeled as 1× Wash Buffer. • 2). The concentrate and 1× Wash Buffer were stored in the refrigerator. The diluted buffer was used within 14 days.
The cell extraction buffer contains 10 mM Tris (pH 7.4), 100 mM NaCl, 1 mM EDTA, 1 mM EGTA, 1 mM NaF, 20 mM Na4P2O7 2 mM Na3VO4. 1% Triton™ ×-100, 10% glycerol, 0.1% SDS and 0.5% deoxycholate. Immediately before use, PMSF (0.3 M stock solution in DMSO) was added to the buffer to a final concentration of 1 mM.
Standard curve configuration: The standard liquid was diluted using glass or plastic tubes. • 1). Huc-Myc (total) standard liquid (Invitrogen, KH02041) was reconstituted with a standard dilution to 1000 pg/mL. Refer to the standard vial label for instructions. The contents were gently swirled or mixed and then allowed to stand for 10 minutes to ensure complete reconstitution, labeled as 1,000 pg/mL human c-Myc. The standard liquid was used within 1 hour after reconstitution. • 2). 250 μL of standard dilution buffers were added to 7 test tubes respectively labeled 500, 250, 125, 62.5, 31.25, 15,63 and 0 pg/mL. • 3). 250 μL of the 1000 pg/ml standard stock solution was added to the first EP tube to a concentration of 500 pg/mL, vortexed and mixed evenly. 250 μL of the resulting mixture was further pipetted and added to the second EP tube to a concentration of 250 pg/mL. Serial dilutions were performed until the sixth EP tube with a concentration of 15.63 pg/mL. Dilution was not performed on the last EP tube. • 4). The remaining reconstituted standard liquid should be discarded, or aliquoted and frozen at −80° C. for further use. Standards can be frozen and thawed only once without losing immunoreactivity.
1× anti-rabbit IgG HRP solution: 1× anti-rabbit IgG HRP solution was prepared within 15 minutes of use. The anti-rabbit IgG HRP (100×) contained 50% viscous glycerol. To ensure accurate dilutions, the following operations were carried out: 1 For each 8-well test strip used in the test, 10 μl, of the anti-rabbit IgG -IRP (100×) solution was pipetted, wherein the pipette tip was wiped with clean absorbent paper to remove excess solutions, and then the solution was dispensed into a test tube containing 1 mL of HRP diluent and mixed thoroughly. 2. The unused anti-rabbit IgG HRP (100×) was placed in the refrigerator for storage.
50 μL of the standard liquid was added to the appropriate wells and not added to the blank control well. Except for the blank control well, 50 μL of Hu c-Myc (total) detection antibody solution was added to each well and mixed by tapping the side face of the plate. […]

| SMILES | IC50 [1] [µM] | inhibition at 1 µM [2] [%] |
| --- | --- | --- |
| CC(C)N(CCc1cccc2ccccc12)Cc1ccc(CNC(=O)c2ccc3c(c2)C(=O)N(C2CCC(=O)NC2=O)C3=O)cc1 (stereo not shown) [A85] | 0.0213 ± 0.0109 | 60 to 90 |
| O=C(Cc1cccc2ccccc12)NCc1ccc(CNC(=O)c2ccc3c(c2)CN(C2CCC(=O)NC2=O)C3=O)c(C(F)(F)F)c1 (stereo not shown) [A159] | 0.0022 ± 0.0008 | 60 to 90 |
| O=C(Cc1nccc2ccccc12)NCc1ccc(CC(=O)Nc2ccc3c(c2)CN(C2CCC(=O)NC2=O)C3=O)cc1 (stereo not shown) [A172] | < 0.003 | 60 to 90 |
| O=C(Cc1cccc2ccccc12)NC[C@H]1CC[C@H](CNc2ccc3c(c2)C(=O)N(C2CCC(=O)NC2=O)C3=O)CC1 (stereo partly shown) [A27] | 6.8 ± 1.54 | 10 to 30 |
| O=C(Cc1ccc2ccccc2c1)NCCCCCCNC(=O)c1ccc2c(c1)C(=O)N(C1CCC(=O)NC1=O)C2=O (stereo not shown) [A9] | 0.57 ± 0.038 | 30 to 60 |
| O=C(Cc1cccc2ccccc12)NCc1ccc(CNC(=O)c2ccc3c(c2)C(=O)N(C2CCC(=O)NC2=O)C3=O)cc1F (stereo not shown) [A107] | 0.0034 | 60 to 90 |
| O=C(Cc1cccc2cccnc12)NCc1ccc(CNC(=O)c2ccc3c(c2)C(=O)N(C2CCC(=O)NC2=O)C3=O)cc1 (stereo not shown) [A34] | 0.018 ± 0.006 | 60 to 90 |
| COc1cc(CNC(=O)Cc2cccc3ccccc23)ccc1CNC(=O)c1ccc2c(c1)C(=O)N(C1CCC(=O)NC1=O)C2=O (stereo not shown) [A111] | 0.0576 ± 0.0259 | 60 to 90 |
| CN(CCc1ccc(Cl)c(Cl)c1)Cc1ccc(CNC(=O)c2ccc3c(c2)C(=O)N(C2CCC(=O)NC2=O)C3=O)cc1 (stereo not shown) [A101] | 0.0004 | 60 to 90 |
| O=C(Cn1c2ccccc2c2cccnc21)NCCCCCCCCNc1ccc2c(c1)C(=O)N(C1CCC(=O)NC1=O)C2=O (stereo not shown) [A16] | 0.0212 ± 0.0061 | 60 to 90 |
| O=C1CCC(N2C(=O)c3ccc(C(=O)NC[C@H]4CC[C@H](CNC(=O)Nc5cccc6cccnc56)CC4)cc3C2=O)C(=O)N1 (stereo partly shown) [A47] | 1.04 ± 0.171 | 60 to 90 |
| O=C(Cc1cccc2ccccc12)NCc1ccc(CNC(=O)c2ccc3c(c2)CN(C2CCC(=O)NC2=O)C3=O)cc1 (stereo not shown) [A152] | 0.0006 ± 0.0003 | 60 to 90 |
| O=C1CCC(N2C(=O)c3ccc(C(=O)NCc4ccc(CN(CCc5cccc6ccccc56)c5ccccc5)cc4)cc3C2=O)C(=O)N1 (stereo not shown) [A94] | 0.289 ± 0.0483 | 60 to 90 |
| O=C(Cc1cccc2ccc(F)cc12)NCc1ccc(CNC(=O)c2ccc3c(c2)CN(C2CCC(=O)NC2=O)C3=O)c(C(F)(F)F)c1 (stereo not shown) [A162] | 0.0019 ± 0.0002 | 60 to 90 |
| O=C(Cc1ccccc1)NCc1ccc(CNC(=O)c2ccc3c(c2)C(=O)N(C2CCC(=O)NC2=O)C3=O)cc1 (stereo not shown) [A53] | 1.45 ± 0.28 | 60 to 90 |
| CN(CCc1cccc2ccccc12)Cc1ccc(CC(=O)Nc2ccc3c(c2)CN(C2CCC(=O)NC2=O)C3=O)cc1 (stereo not shown) [A205] | 0.0002 ± 0.0001 | 60 to 90 |
| O=C1CCC(N2C(=O)c3ccc(C(=O)NCc4ccc(CN(CCc5cccc6ccccc56)C5CC5)cc4)cc3C2=O)C(=O)N1 (stereo not shown) [A88] | 0.0831 | 60 to 90 |
| CN(CCc1ccc(Cl)cc1Cl)Cc1ccc(CNC(=O)c2ccc3c(c2)C(=O)N(C2CCC(=O)NC2=O)C3=O)cc1 (stereo not shown) [A100] | 0.0009 | 60 to 90 |
| O=C(Cc1cccc2ccc(F)cc12)NCc1ccc(CNC(=O)c2ccc3c(c2)CN(C2CCC(=O)NC2=O)C3=O)cc1 (stereo not shown) [A155] | 0.003 ± 0.0006 | 60 to 90 |
| O=C1CCC(N2C(=O)c3ccc(C(=O)NCCCCCCNC(=O)n4c5ccccc5c5ccccc54)cc3C2=O)C(=O)N1 (stereo not shown) [A12] | 1.06 ± 0.062 | 30 to 60 |
| O=C(CN1c2ccccc2Oc2ccccc21)NCCCCCCNC(=O)c1ccc2c(c1)C(=O)N(C1CCC(=O)NC1=O)C2=O (stereo not shown) [A7] | 0.32 ± 0.038 | 30 to 60 |

The next lines start with the values.

| IC50 [1] [µM] | inhibition at 1 µM [2] [%] | SMILES |
| --- | --- | --- |
| 0.0456 ± 0.003 | 60 to 90 | CN(Cc1ccc(CNC(=O)c2ccc3c(c2)C(=O)N(C2CCC(=O)NC2=O)C3=O)cc1)C(=O)Cn1c2ccccc2c2cccnc21 (stereo not shown) [A72] |
| 0.0059 ± 0.0039 | 60 to 90 | O=C(Cn1c2ccccc2c2cccnc21)NCc1ccc(CNC(=O)c2ccc3c(c2)C(=O)N(C2CCC(=O)NC2=O)C3=O)cc1C(F)(F)F (stereo not shown) [A122] |
| 0.0361 ± 0.0133 | 60 to 90 | O=C(Cn1c2ccccc2c2cccnc21)NCc1ccc(CNC(=O)c2ccc3c(c2)C(=O)N(C2CCC(=O)NC2=O)C3=O)cn1 (stereo not shown) [A129] |
| 0.0124 ± 0.0044 | 60 to 90 | O=C(Cn1c2ccccc2c2cccnc21)NCc1ccc(C2(NC(=O)c3ccc4c(c3)C(=O)N(C3CCC(=O)NC3=O)C4=O)CC2)cc1 (stereo not shown) [A138] |
| 0.0077 ± 0.0021 | 60 to 90 | O=C(Cn1c2ccccc2c2cccnc21)NCc1ccc(COCc2ccc3c(c2)C(=O)N(C2CCC(=O)NC2=O)C3=O)cc1 (stereo not shown) [A192] |
| 0.0011 ± 0.0008 | 60 to 90 | CN(CCn1c2ccccc2c2cccnc21)Cc1ccc(CNCc2ccc3c(c2)C(=O)N(C2CCC(=O)NC2=O)C3=O)cc1 (stereo not shown) [A182] |
| 0.0131 ± 0.0062 | 60 to 90 | CN(CCn1c2ccccc2c2cccnc21)Cc1ccc(CNC(=O)c2ccc3c(c2)C(=O)N(C2CCC(=O)NC2=O)C3=O)cc1 (stereo not shown) [A84] |
| 0.0017 ± 0.0013 | 60 to 90 | O=C(Cn1c2ccccc2c2cccnc21)NCc1ccc(CNC(=O)c2ccc3c(c2)CN([C@H]2CCC(=O)NC2=O)C3=O)cc1 [A224] |
| 0.0017 ± 0.0003 | 60 to 90 | O=C(Cn1c2ccccc2c2cccnc21)NCc1ccc(CC(=O)Nc2ccc3c(c2)C(=O)N(C2CCC(=O)NC2=O)C3=O)cc1 (stereo not shown) [A166] |
| 0.0005 ± 0.0001 | 60 to 90 | O=C(Cn1c2ccccc2c2cccnc21)NCc1ccc(CNC(=O)c2ccc3c(c2)CN(C2CCC(=O)NC2=O)C3=O)c(F)c1 (stereo not shown) [A157] |
| 0.0055 ± 0.0023 | 60 to 90 | O=C1CCC(N2C(=O)c3ccc(C(=O)NCc4ccc(CNCCn5c6ccccc6c6cccnc65)cc4)cc3C2=O)C(=O)N1 (stereo not shown) [A74] |
| 0.0507 ± 0.0114 | 30 to 60 | O=C(Cn1c2ccccc2c2cccnc21)NCCCCCCNC(=O)c1ccc2c(c1)C(=O)N(C1CCC(=O)NC1=O)C2=O (stereo not shown) [A2] |
| 0.0279 ± 0.0195 | 60 to 90 | O=C(Cc1cccc2ccccc12)NCc1ccc(CC(=O)Nc2ccc3c(c2)C(=O)N(C2CCC(=O)NC2=O)C3=O)cc1 (stereo not shown) [A165] |
| 0.0046 | 60 to 90 | CS(=O)(=O)N(CCn1c2ccccc2c2cccnc21)Cc1ccc(CNC(=O)c2ccc3c(c2)C(=O)N(C2CCC(=O)NC2=O)C3=O)cc1 (stereo not shown) [A78] |
